In patent US20180303859A1, “Agent For Preventing And/Or Treating Scleroderma” (THE UNIVERSITY OF TOKYO, priority 2015, published 2018):

Key:
[1] = tested on: mice deficient for vascular endothelial cell-specific Fli1 (Fli1 flox/flox; Tie2-Cre); experiment: Extravasation of Evans blue dye in vascular endothelial cell-specific Fli1 deficient mice; assay type: in vivo; conditions: vascular endothelial cell-specific Fli1 knockout mice; intraperitoneal administration, two weeks; absorbance at 620 nm
Description: Subsequently, under the same conditions as in Example 1, monoammonium glycyrrhizinate or PBS was intraperitoneally administered to 10-week-old mice deficient for vascular endothelial cell-specific Fli1 (Fli1 flox/flox; Tie2-Cre: see American Journal of Pathology, April 2010 Volume 176, Issue 4, p 1983-1998), which are model mice for angiopathy in scleroderma, or to control mice (Fli1 flox/flox). Two weeks later, 200 μl of Evans blue dye (0.5% in PBS) was administered into the tail vein of each mouse, and the mouse was euthanized 30 minutes thereafter, followed by incision of the skin from the middle of the abdomen. Cutaneous blood vessels were macroscopically observed from the dermal side to evaluate the degree of leakage of the dye. Further, for measurement of extravasation of Evans blue, skin was collected from three positions using a skin biopsy punch with a diameter of 4 mm, and then allowed to dissolve in formamide at 37° C. for 24 hours, followed by measurement of the absorbance at a wavelength of 620 nm using a microplate reader.

[2] = tested on: BLM-induced scleroderma model mice; experiment: Study on inflammation and immune abnormality in BLM-induced scleroderma model mice (FACS of CD4-positive cells, skin cytokine mRNA); assay type: in vivo
Description: BLM-induced scleroderma model mice were prepared by the same treatment as in Example 1 except that the bleomycin administration treatment was carried out for only one week. On the last day of the administration, bilateral inguinal lymph nodes and the spleen were removed from each mouse. After mashing the lymph nodes, lymphocytes were separated therefrom. To blood cells removed from the spleen, RBC lysis buffer (0.0017 M Trizma, Sigma-Aldrich, 0.1 M NH4Cl 2.675 g, Sigma-Aldrich) was added to separate lymphocytes. The lymphocytes were subjected to staining of surface antigens using an anti-CD3 antibody (17A2), anti-CD4 antibody (RM4-5), and anti-CD8a antibody (53-6.7). Further, stimulation was carried out with 10 ng/ml phorbol myristate acetate (Sigma-Aldrich), 1 μg/ml ionomycin (Sigma-Aldrich), and 1 μg/ml brefeldin A ([…]; BD PharMingen) for four hours, and staining of intracellular antigens was carried out using an anti-interleukin (IL)-4 antibody (11B11), anti-IL17A antibody (TC11-18HC0.1), and anti-interferon (IFN)-γ antibody (XMG1.2) (all antibodies were manufactured by BioLegend, San Diego, Calif., USA). The stained lymphocytes were analyzed using a FACS Verseflow cytometer (BD Biosciences).
Further, from the skin of the back at the injection site of each BLM-induced scleroderma model mouse, RNA was extracted by the same method as in Example 1, and the mRNA levels of IL4, IL1 b, and arginase were measured. Primers having the following sequences were used.

[3] = tested on: BLM-induced scleroderma model mice; experiment: Endothelial-to-mesenchymal transition (Endo-MT) in skin of BLM-induced scleroderma model mice (VE-cadherin/FSP1 immunostaining, Snail1 mRNA); assay type: in vivo
Description: Paraffin sections were prepared using skin samples of the injection site of BLM-induced scleroderma model mice prepared under the same conditions as in Example 1. A rabbit anti-VE-cadherin antibody (Santa Cruz Biotechnolog) and a goat anti-fibroblast-specific protein 1 (FSP1) antibody (abcam, Cambridge, UK) as primary antibodies, and an FITC-conjugated donkey anti-rabbit IgG antibody (Santa Cruz Biotechnolog) and an Alexa Fluor donkey 555 anti-goat IgG antibody (Invitrogen, Carlsbad, Calif., USA) as secondary antibodies, were reacted with the sections, and nuclear staining was performed using Vectashield with DAPI (Vector Laboratories, Burlingame, Calif., USA). Observation was carried out using Bio Zero BZ-8000 (Keyence, Osaka, Japan) at wavelengths of 495 nm (green), 565 nm (red), and 400 nm (blue). The number of cells stained with both FSP1 and VE-Cadherin, which are observed as green color and red color, respectively (cells that had undergone Endo-MT), was compared. Further, from the skin samples, RNA was extracted by the same method as in Example 1, and the mRNA level of Snail1 was measured. Primers having the following sequences were used.

[4] = tested on: BLM-induced scleroderma model mice; experiment: Study on fibrosis in BLM-induced scleroderma model mice (dermal thickness, collagen, α-SMA-positive fibroblasts, skin mRNA); assay type: in vivo, C57BL/6 mice
Description: To the skin of the back of 8-week-old C57BL/6 mice (wild type), 1 mg/ml bleomycin (BLM) solution prepared with phosphate buffered saline (PBS) was intracutaneously injected at a dose of 300 μg every day for four weeks to prepare BLM-induced scleroderma model mice. A control group was provided by subcutaneous injection of the same amount of PBS. At the same time, monoammonium glycyrrhizinate (Cokey Co., Ltd.) dissolved in PBS was intraperitoneally administered at a dose of 30 mg/kg every day for four weeks. A control group was provided by intraperitoneal administration of the same amount of PBS. Using a skin biopsy punch with a diameter of 6 mm, the skin tissue at the injection site was collected, and subjected to Hematoxylin & Eosin staining to measure the dermal thickness. Further, a skin sample collected by the same method was subjected to quantification of the collagen content using a QuickZyme Total Collagen Assay kit (QuickZyme BioSciences B.V., Netherlands).
Paraffin sections were prepared using the skin of the back at the injection site of each BLM-induced scleroderma model mouse, and reacted with an anti-α-smooth muscle actin (α-SMA) antibody (Sigma-Aldrich, St. Louis, Mo., USA) according to the manufacturer's instruction provided for the VEVTOR M.O.M Immunodetection Kit (Vector laboratories, Burlingame, Calif., USA), followed by coloring with DAB (0.2 mg/ml, DOJINDO LABORATORIES, Kumamoto, JAPAN). For each mouse skin sample, three photographs of the superficial dermal layer were randomly taken for ×400 viewing areas, and the numbers of spindle-shaped cells positive for α-SMA were counted. Their average was regarded as the number of α-SMA-positive fibroblasts in the mouse. Comparison was made between the glycyrrhizic acid group and the control group.
Further, RNA was extracted from the skin of the back at the injection site of each BLM-induced scleroderma model mouse using an RNeasy min kit (Qiagen Valencia, Calif., USA), and then reverse-transcribed into cDNA using iScript cDNA Synthesis Kits (Bio-Rad, Hercules, Calif., USA). Measurement by quantitative real-time PCR was carried out using a SYBR Green PCR Master Mix (Life technologies) with ABI prism 7000 (Life technologies). The measurement was carried out in triplicate for each sample to calculate the average value. As a reference gene, Gapdh was used. The relative expression level of mRNA of the subject gene was calculated by the ^ΔΔCt method. Primers having the following sequences were used.

[5] = lymph nodes or spleen, BLM for one week, FACS
[6] = skin tissue of BLM-induced scleroderma model mice
[7] = skin of BLM-induced scleroderma model mice, quantitative real-time PCR

Structure (SMILES): CC1(C)[C@@H](O[C@H]2O[C@H](C(=O)O)[C@@H](O)[C@H](O)[C@H]2O[C@@H]2O[C@H](C(=O)O)[C@@H](O)[C@H](O)[C@H]2O)CC[C@]2(C)[C@H]3C(=O)C=C4[C@@H]5C[C@@](C)(C(=O)O)CC[C@]5(C)CC[C@@]4(C)[C@]3(C)CC[C@@H]12 [glycyrrhizic acid]
- extravasation of Evans blue [1]: significantly decreased
- ratio of IFN-γ-positive cells among CD4-positive cells [2, 5]: did not cause any change
- ratio of IL17A-positive cells among CD4-positive cells [2, 5]: did not cause any change
- ratio of IL4-positive cells among CD4-positive T cells ([2]; lymph nodes, BLM for one week, FACS): significant decreases
- mRNA of arginase (marker for M2 macrophages) [2, 6]: decreased
- mRNA of interleukin 1 b [2, 6]: decreased
- mRNA of interleukin 4 [2, 6]: decreased
- ratio of IL4-positive cells among CD4-positive T cells ([2]; spleen, BLM for one week, FACS): significant decreases
- mRNA level of Snail1 [3]: significantly decreased
- increase in cells that have undergone Endo-MT (stained for both VE-cadherin and FSP1) ([3]; immunostaining): suppressed
- number of myofibroblasts (α-SMA-positive fibroblasts) in the skin ([4]; BLM-induced scleroderma model mice, 30 mg/kg i.p. daily, four weeks): significant decrease
- dermal thickness (thickening of the dermis) ([4]; BLM-induced scleroderma model mice, 30 mg/kg intraperitoneally every day for four weeks): reduced
- amount of collagen fibers ([4]; BLM-induced scleroderma model mice, skin at injection site, 30 mg/kg i.p. daily, four weeks): decreased
- amount of collagen fibers ([4]; control mice not subjected to BLM induction, 30 mg/kg i.p. daily, four weeks): did not cause any change
- dermal thickness ([4]; control mice not subjected to BLM induction, 30 mg/kg intraperitoneally every day for four weeks): did not cause any change
- mRNA of Col1a1 [4, 7]: significant decreases
- mRNA of Col1a2 [4, 7]: significant decreases
- mRNA of Col3a1 [4, 7]: significant decreases
- mRNA of Mmp13 (collagenase) [4, 7]: significant increase
- mRNA of thrombospondin (Thbs1) [4, 7]: decrease
